The values that follow come from patent US20160038526A1, “TREATMENT OF PROSTATE CANCER” (THOMAS JEFFERSON UNIVERSITY, priority 2012, published 2016).

The target in experiment [1] is Stat3 (Homo sapiens, UniProt P40763). In words: IL-6-induced Stat3 transcriptional activity, luciferase reporter in LNCaP cells. Format: cell-based. As to conditions: 6.0 μM for 2 h, 50 ng/ml IL-6 for 16 h. Here is the method:
LNCaP prostate cancer cells were transiently co-transfected with pStat3, pIL-6-receptor (pIL-6R), pStat3-Luc and pRL-TK (Renilla luciferase). The cells were serum-starved for 20 h, pre-treated with N6BAP or the control compound C5 (Ctrl) at 6.0 μM for 2 h followed by stimulation with 50 ng/ml of IL-6 for 16 h. The relative luciferase activities were determined. S.E. values are indicated by bars.

In experiment [2] the target is T1, Stat5a (Homo sapiens, UniProt P42229).
T1 sequence (P42229 1-794): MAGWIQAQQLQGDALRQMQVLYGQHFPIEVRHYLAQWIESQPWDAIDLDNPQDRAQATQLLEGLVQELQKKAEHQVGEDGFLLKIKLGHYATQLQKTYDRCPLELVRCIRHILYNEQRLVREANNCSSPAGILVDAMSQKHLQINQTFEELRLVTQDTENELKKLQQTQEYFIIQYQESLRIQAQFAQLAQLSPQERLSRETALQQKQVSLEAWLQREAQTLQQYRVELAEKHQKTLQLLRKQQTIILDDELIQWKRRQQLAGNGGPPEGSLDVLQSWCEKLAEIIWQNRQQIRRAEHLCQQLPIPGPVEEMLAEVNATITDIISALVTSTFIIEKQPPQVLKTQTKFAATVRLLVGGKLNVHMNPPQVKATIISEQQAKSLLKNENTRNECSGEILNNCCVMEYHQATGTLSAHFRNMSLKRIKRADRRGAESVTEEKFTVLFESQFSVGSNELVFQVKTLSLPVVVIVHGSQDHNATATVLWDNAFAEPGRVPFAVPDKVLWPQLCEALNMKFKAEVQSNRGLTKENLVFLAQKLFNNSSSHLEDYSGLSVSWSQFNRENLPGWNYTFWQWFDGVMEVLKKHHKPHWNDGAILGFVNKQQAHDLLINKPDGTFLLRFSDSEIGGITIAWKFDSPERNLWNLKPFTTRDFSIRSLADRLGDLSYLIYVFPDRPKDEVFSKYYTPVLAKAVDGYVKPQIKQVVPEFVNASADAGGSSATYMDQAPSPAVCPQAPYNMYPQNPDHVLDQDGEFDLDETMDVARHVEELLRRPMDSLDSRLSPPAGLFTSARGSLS
Put plainly: Stat5 dimerization assay (FLAG-/MYC-tagged Stat5a co-immunoprecipitation) in PC-3 cells. Format: cell-based. Also on record: expressed in transfected cells; host or cells: PC-3. As to conditions: 2 hours pretreatment, hPrl 10 nM 30 minutes. As for the experimental part:
FLAG-tagged Stat5a and MYC-tagged Stat5a were generated as follows. Plasmid pCMV3-FLAG-Stat5a, pCMV3-MYC-Stat5a and pPrlR were co-transfected using FuGENE6 (Roche) into PC-3 cells (2 μg of each plasmid per 1×10^7 cells). The cells were starved for 20 hours, pretreated with N6BAP for 2 hours, then stimulated with hPrl (10 nM) in RPMI 1640 without serum for 30 minutes. The cell lysates were immunoprecipitated with 25 μl anti-FLAG M2 […] affinity gel (2 μg/ml, Sigma), anti-MYC pAb (1 μg/ml, Upstate) or normal rabbit serum (NRS). The primary antibodies were used in the immunoblottings at the following concentrations: anti-FLAG pAb (1:1000; Stratagene), anti-MYC mAb (1:1000; Sigma), anti-Stat5a/b mAb (1:250) (Transduction Laboratories) detected by horseradish peroxidase-conjugated secondary antibodies.
Lanes 1, 2, 4, 6, 8, 10, 12, 14 and 16 represent cells stimulated with human prolactin (Prl) for 30 minutes which induces dimerization of Stat5. Two hours prior to Prl-stimulation, the cells had been treated with DMSO (lanes 1-4), the control compound C5 (lanes 5 and 6) or N6BAP (lanes 7-16) to test whether the Stat5a/b-inhibitor compound, N6BAP, would be able to inhibit dimerization of Stat5. […] It should be noted the drug effect in this study was not due to cell apoptosis induction, as the treatment time was only 2 hours. […]

Experiment [3] relates to CWR22Rv1 xenograft tumor. Put plainly: CWR22Rv1 human prostate tumor xenograft in nude mice: tumor growth, viable cells, TUNEL. As to conditions: nude mice, 25, 50 or 100 mg/kg intraperitoneal daily for 10 days. Format: in vivo. As for the experimental part:
1.5×10^7 CWR22Rv1 cells in 0.1 ml RPMI 1640 medium were mixed with 0.1 ml of Matrigel (BD Bioscience, Palo Alto, Calif.), and were inoculated subcutaneously (s.c.) into one flank per mouse. Established tumors were randomly distributed into five groups (ten mice for each group) with similar average size. N6BAP was dissolved in 0.3% hydroxycellulose (HPC). Mice were treated daily for 10 days by intraperitoneal injection with 0.2 ml of N6BAP at 25 mg/kg, 50 mg/kg or 100 mg/kg body weight, or with 0.2 ml 0.3% HPC solution, or no treatment for control. Tumor sizes were measured three times per week. Tumor volumes were calculated using the following formula: 3.14×length×width×depth/6. Tumor growth rates were calculated, and percent changes in tumor volume of each group were presented. […] Individual tumors are represented as columns.
Tumor sections were hematoxylin-eosin stained to assess the loss of viable tumor cells. The results are shown in FIG. 12A, showing the loss of live epithelial cells with the […] N6BAP-treated CWR22Rv1 xenograft tumors vs. controls.
In situ end labeling of fragmented DNA was carried out according to the terminal deoxyribonucleotidyl transferse (TdT)-mediated biotin-16-dUTP nick-end labeling (TUNEL) assay to determine that cells within the CWR22Rv1 tumors were undergoing apoptosis. The assay was performed according to the In situ Cell Death Detection Kit from Roche Applied Science. Briefly, rehydrated deparaffinated tissue sections from the xenograft tumors were treated by Proteinase K followed by 3% H2O2 at room temperature. […] Nucleotides incorporated into fragmented DNA were detected after incubation with anti-fluorescein antibody conjugated with peroxidase followed by visualization with 3,3-diaminobenzidine as a chromogen and methyl green as a counterstain. […] Cell viability indexes were determined by counting alive cells per total number of cells per view established in the no treatment group. TUNEL indexes were determined by counting epithelial cells with TUNEL-positive cells per total number of epithelial cells per view. […]
For orientation: Xenograft models place foreign cells or tissue in a host animal.

Stat3, sequence (P40763 whole entry, species assumed): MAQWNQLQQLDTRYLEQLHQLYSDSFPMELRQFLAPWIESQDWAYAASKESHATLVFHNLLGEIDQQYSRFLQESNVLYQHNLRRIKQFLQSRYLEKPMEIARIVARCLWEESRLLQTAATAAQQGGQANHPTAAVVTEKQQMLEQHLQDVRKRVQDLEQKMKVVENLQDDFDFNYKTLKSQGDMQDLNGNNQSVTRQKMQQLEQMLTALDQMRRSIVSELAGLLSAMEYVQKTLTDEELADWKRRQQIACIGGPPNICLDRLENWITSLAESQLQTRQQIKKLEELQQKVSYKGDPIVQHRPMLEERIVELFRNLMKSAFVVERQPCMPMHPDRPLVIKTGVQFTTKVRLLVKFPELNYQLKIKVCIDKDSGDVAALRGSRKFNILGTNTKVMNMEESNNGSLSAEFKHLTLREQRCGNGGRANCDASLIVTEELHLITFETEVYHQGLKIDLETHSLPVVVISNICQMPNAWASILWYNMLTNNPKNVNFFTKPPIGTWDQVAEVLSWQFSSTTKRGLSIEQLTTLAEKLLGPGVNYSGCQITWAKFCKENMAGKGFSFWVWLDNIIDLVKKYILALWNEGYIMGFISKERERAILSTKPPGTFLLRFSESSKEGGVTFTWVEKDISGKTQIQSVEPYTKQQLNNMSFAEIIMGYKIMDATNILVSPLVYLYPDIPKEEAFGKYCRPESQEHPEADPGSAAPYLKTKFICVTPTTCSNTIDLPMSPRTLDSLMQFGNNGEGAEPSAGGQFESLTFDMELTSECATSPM

In the case of `O=P(O)(O)OC[C@H]1O[C@@H](n2cnc3c(NCc4ccccc4)ncnc32)[C@H](O)[C@@H]1O` [N6BAP, N^6-benzyladenosine-5′-monophosphate], the “transcriptional activity of Stat3” value in experiment [1] is given as “does not inhibit the transcriptional activity of Stat3”. Further, the “dimerization of Stat5a” value in experiment [2] is recorded as “effectively inhibited Stat5a dimerization”. For the same molecule, in experiment [3], the “apoptotic epithelial cells in tumor xenografts (TUNEL)” value was “increased apoptotic epithelial cells”, the “live epithelial cells in tumor xenografts (hematoxylin-eosin staining)” value is on record as “decreased the number of live epithelial cells” and the “xenograft tumor growth (tumor volume)” value was “inhibited the growth of the xenograft tumor in a dose-dependent manner”.
